One assay deals with T1, Monoamineoxidase B type human-derived enzyme (Homo sapiens, UniProt P27338).
T1 sequence (P27338 1-520): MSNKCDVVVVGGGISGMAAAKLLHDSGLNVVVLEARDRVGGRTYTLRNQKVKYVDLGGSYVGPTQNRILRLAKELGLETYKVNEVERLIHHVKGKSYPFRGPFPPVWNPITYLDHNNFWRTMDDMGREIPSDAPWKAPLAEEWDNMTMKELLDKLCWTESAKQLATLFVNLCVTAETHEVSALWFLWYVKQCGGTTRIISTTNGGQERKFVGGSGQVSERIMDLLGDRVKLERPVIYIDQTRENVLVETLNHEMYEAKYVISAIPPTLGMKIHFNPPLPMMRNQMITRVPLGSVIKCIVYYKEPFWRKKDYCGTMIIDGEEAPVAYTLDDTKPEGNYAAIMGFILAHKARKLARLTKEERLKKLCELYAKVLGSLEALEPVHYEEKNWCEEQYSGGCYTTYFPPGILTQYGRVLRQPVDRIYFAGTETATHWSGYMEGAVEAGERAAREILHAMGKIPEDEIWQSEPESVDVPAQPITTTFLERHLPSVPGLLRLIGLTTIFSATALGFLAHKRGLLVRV
Briefly: Inhibitory effects on the activity of MAO-B (Amplex Red fluorescence, benzylamine substrate). The following applies: read-out: Inhibitory effects (%) on the activity of MAO-B. In kind it is biochemical. The procedure: Monoamineoxidase A or B type human-derived enzyme (5 mg/ml) was each diluted with 0.05 M sodium phosphate buffer (pH 7.4) to yield a dilution of 1:200, and then 100 μl of an enzyme buffer containing 2 μl of a compound 1 solution at the corresponding concentration was placed in a test plate (flat-bottom) and incubated for 30 minutes.
100 μl of a working buffer containing 400 μM of Amplex Red reagent, 2 U/ml horseradish peroxidase, and 2 mM substrate (tyramine for MAO-A and benzylamine for MAO-B) in 0.05 M sodium phosphate buffer (pH 7.4) was mixed with a pre-incubated enzyme buffer at 1:1 and measured using fluorescence (EX: 563 nm & EM: 587 nm) for 30 minutes.
Consider `NC(=O)OCc1cc(-c2ccc(OCCCC(F)(F)F)cc2)no1` [Example 59, carbamic acid 3-[4-(4,4,4-trifluoro-butoxy)-phenyl]-isoxazol-5-ylmethyl ester], for which the inhibition at 0.01 µM is 97.4%.
On the same count and under the same terms, with `CCCOc1ccc(-c2cc(COC(N)=O)on2)cc1` [Example 42, carbamic acid 3-(4-propoxy-phenyl)-isoxazol-5-ylmethyl ester] the figure was 85.3%; with `CCOC(=O)COc1ccc(-c2cc(COC(N)=O)on2)cc1` [Example 47, [4-(5-carbamoyloxymethyl-isoxazol-3-yl)-phenoxy]-acetic acid ethyl ester], 41.2%; with `NC(=O)OCCCOc1ccc(-c2cc(COC(N)=O)on2)cc1` [Example 52, carbamic acid 3-[4-(5-carbamoyloxymethyl-isoxazol-3-yl)-phenoxy]-propyl ester], 26.6%.

Still in this assay, the particulars now being: treatment concentration 10 nM.
Take “3-[4-(3-chloro-benzyloxy)-phenyl]-isoxazol-5-ylmethyl ester [Example 20]”: the “Inhibitory effects (%) on the activity of MAO-B” value is listed as 96.2%.

Still in this assay, the particulars now being: treatment concentration 10 nM; read-out: Inhibitory effects (%) on the activity of MAO-B.
As for `NC(=O)OCc1cc(-c2ccc(OCc3ccc(C=O)cc3)cc2)no1` [Example 36, carbamic acid 3-[4-(4-formyl-benzyloxy)-phenyl]-isoxazol-5-ylmethyl ester], the inhibition at 0.01 µM worked out at 90.1%.
On the same count and under the same terms, to `NC(=O)OCc1cc(-c2ccc(OCc3c(F)cc(F)cc3F)cc2)no1` [Example 18, carbamic acid 3-[4-(2,4,6-trifluoro-benzyloxy)-phenyl]-isoxazol-5-ylmethyl ester] belongs 91.5%.
Same read-out and setting: to `NC(=O)OCc1cc(-c2ccc(OCc3ccc4c(c3)OCO4)cc2)no1` [Example 203, carbamic acid 3-[4-(benzo[1,3]dioxol-5-ylmethoxy)-phenyl]-isoxazol-5-ylmethyl ester] belongs 93%; to `NC(=O)OCc1cc(-c2ccc(NCc3c(Cl)cccc3Cl)cc2)no1` [Example 91, carbamic acid 3-[4-(2,6-dichloro-benzylamino)-phenyl]-isoxazol-5-ylmethyl ester], 73.1%.
Same read-out and setting: to `NC(=O)OCc1cc(-c2ccc(NCc3cccc(F)c3F)cc2)no1` [Example 80, Carbamic acid 3-[4-(2,3-difluoro-benzylamino)-phenyl]-isoxazol-5-ylmethyl ester] belongs 74.5%; to `CC(C)c1ccc(COc2ccc(-c3cc(COC(N)=O)on3)cc2)cc1` [Example 32, Carbamic acid 3-[4-(4-isopropyl-benzyloxy)-phenyl]-isoxazol-5-ylmethyl ester], 84.4%.
Take `NC(=O)OCc1cc(-c2ccc(OCc3cc(Cl)ccc3Cl)cc2)no1` [Example 24, carbamic acid 3-[4-(2,5-di-chloro-benzyloxy)-phenyl]-isoxazol-5-ylmethyl ester]: the inhibition at 0.01 µM was found to be 83.3%.
Same read-out and setting: with `NC(=O)OCc1cc(-c2ccc(OCc3cccc([N+](=O)[O-])c3)cc2)no1` [Example 26, carbamic acid 3-[4-(3-nitro-benzyloxy)-phenyl]-isoxazol-5-ylmethyl ester] the figure was 87.3%; with `NC(=O)OCc1cc(-c2ccc(NCc3cccc(Cl)c3Cl)cc2)no1` [Example 88, carbamic acid 3-[4-(2,3-dichloro-benzylamino)-phenyl]-isoxazol-5-ylmethyl ester], 60%.
Same read-out and setting: to `Cc1ccccc1COc1ccc(-c2cc(COC(N)=O)on2)cc1` [Example 29, carbamic acid 3-[4-(2-methyl-benzyloxy)-phenyl]-isoxazol-5-ylmethyl ester] belongs 80.3%; to `NC(=O)OCc1cc(-c2ccc(OCc3cccc(C(F)(F)F)c3)cc2)no1` [Example 19, carbamic acid 3-[4-(3-trifluoromethyl-benzyloxy)-phenyl]-isoxazol-5-ylmethyl ester], 94.2%; to `NC(=O)OCc1cc(-c2ccc(OCc3ccccc3Cl)cc2)no1` [Example 21, carbamic acid 3-[4-(2-chloro-benzyloxy)-phenyl]-isoxazol-5-ylmethyl ester], 92.9%.
Same read-out and setting: to `NC(=O)OCc1cc(-c2ccc(OCc3cccc(C=O)c3)cc2)no1` [Example 35, carbamic acid 3-[4-(3-formyl-benzyloxy)-phenyl]-isoxazol-5-ylmethyl ester] belongs 90.4%; to `C#CCNCc1cc(-c2ccc(OCc3ccccc3)cc2)no1` [Example 119, [3-(4-benzyloxy-phenyl)-isoxazol-5-ylmethyl]-prop-2-ynyl-amine], 81.7%.
Consider `C#CCN(C)Cc1cc(-c2ccc(OCc3ccccc3)cc2)no1` [Example 178, [3-(4-benzyloxy-phenyl)-isoxazol-5-ylmethyl]-methyl-prop-2-ynyl-amine], for which the inhibition at 0.01 µM worked out at 64%.
Same read-out and setting: to `C=CCNCc1cc(-c2ccc(OCc3ccccc3)cc2)no1` [Example 176, Allyl-[3-(4-benzyloxy-phenyl)-isoxazol-5-ylmethyl]-amine] belongs 71.5%; to `NC(=O)OC1CCN(Cc2cc(-c3ccc(OCc4ccccc4)cc3)no2)CC1` [Example 138, Carbamic acid 1-[3-(4-benzyloxy-phenyl)-isoxazol-5-ylmethyl]-piperidin-4-yl ester], 39.1%.
On to `COC(=O)c1ccc(COc2ccc(-c3cc(COC(N)=O)on3)cc2)o1` [Example 73, 5-[4-(5-carbamoyloxymethyl-isoxazol-3-yl)-phenoxymethyl]-furan-2-carboxylic acid methyl ester], for which the inhibition at 0.01 µM turned out to be 58.1%.
Regarding `NC(=O)C(CO)NCc1cc(-c2ccc(OCc3ccccc3)cc2)no1` (stereo not drawn) [Example 167, 2-{[3-(4-benzyloxy-phenyl)-isoxazol-5-ylmethyl]-amino}-3-hydroxy-propionamide], the inhibition at 0.01 µM came out at 21.8%.
The same measure, in the same setting: to `COc1cccc(COc2ccc(-c3cc(COC(N)=O)on3)cc2)c1` [Example 30, Carbamic acid 3-[4-(3-methoxy-benzyloxy)-phenyl]-isoxazol-5-ylmethyl ester] belongs 90.2%; to `COCCNCc1cc(-c2ccc(OCc3ccccc3)cc2)no1` [Example 174, [3-(4-benzyloxy-phenyl)-isoxazol-5-ylmethyl]-(2-methoxy-ethyl)-amine], 52.7%.
Same read-out and setting: with `c1ccc(COc2ccc(-c3cc(Cn4ccnc4)on3)cc2)cc1` [Example 139, 3-(4-benzyloxy-phenyl)-5-imidazol-1-ylmethyl-isoxazole] the figure was 84.6%; with `COc1cccc(CNc2ccc(-c3cc(COC(N)=O)on3)cc2)c1` [Example 105, Carbamic acid 3-[4-(3-methoxy-benzylamino)-phenyl]-isoxazol-5-ylmethyl ester], 53.7%.
As for `NC(=O)OCc1cc(-c2ccc(NCc3ccccc3F)cc2)no1` [Example 78, Carbamic acid 3-[4-(2-fluoro-benzylamino)-phenyl]-isoxazol-5-ylmethyl ester], the inhibition at 0.01 µM came to 84.7%.
On the same count and under the same terms, to `COc1c(C)cc(COc2ccc(-c3cc(COC(N)=O)on3)cc2)nc1C` [Example 68, Carbamic acid 3-[4-(5-methoxy-4,6-dimethyl-pyridin-2-ylmethoxy)-phenyl]-isoxazol-5-ylmethyl ester] belongs 63.4%.
Same read-out and setting: with `NC(=O)OCc1cc(-c2ccc(OCc3ccc4ccccc4n3)cc2)no1` [Example 70, Carbamic acid 3-[4-(quinolin-2-ylmethoxy)-phenyl]-isoxazol-5-ylmethyl ester] the figure was 27.1%; with `NC(=O)OCc1cc(-c2ccc(OCc3ccccc3C(F)(F)F)cc2)no1` [Example 201, carbamic acid 3-[4-(2-trifluoromethyl-benzyloxy)-phenyl]-isoxazol-5-ylmethyl ester], 72.4%; with `Cc1noc(C)c1CNc1ccc(-c2cc(COC(N)=O)on2)cc1` [Example 112, carbamic acid 3-{4-[(3,5-dimethyl-isoxazol-4-ylmethyl)-amino]-phenyl}-isoxazol-5-ylmethyl ester], 26%.
As to `CN(C)NC(=O)OCc1cc(-c2ccc(OCc3ccccc3)cc2)no1` [Example 129, N′,N′-dimethyl-hydrazinecarboxylic acid 3-(4-benzyloxy-phenyl)-isoxazol-5-ylmethyl ester], the inhibition at 0.01 µM is 22%.
Same read-out and setting: to `NC(=O)OCc1cc(-c2ccc(NCc3cc(Cl)ccc3Cl)cc2)no1` [Example 90, carbamic acid 3-[4-(2,5-dichloro-benzylamino)-phenyl]-isoxazol-5-ylmethyl ester] belongs 20.3%.

The same assay, now with this note: treatment concentration 100 nM.
Turning to `NC(=O)OCc1cc(-c2ccc(OCc3ccc(C(F)(F)F)cc3)cc2)no1` [Example 202, carbamic acid 3-[4-(4-trifluoromethyl-benzyloxy)-phenyl]-isoxazol-5-ylmethyl ester], the inhibition at 0.1 µM was 95.5%.
